# Source: patent publication US7648972B2, “2-methylene-1α-hydroxy-19,21-dinorvitamin D3 analogs and uses thereof” (Wisconsin Alumni Research Foundation, priority 2006, dated 2010)
# Entries after “also recorded” stand apart in the source; their conditions may differ.
# Legend:
# [1] = tested on: 24-hydyroxylase (24Ohase) gene promoter luciferase reporter in ROS 17/2.8 (bone) cells; assay: In vitro transcription assay (24-hydroxylase promoter luciferase reporter); format: cell-based; settings: Ros17/2.8 (bone) cells
# Procedure: Transcription activity was measured in ROS 17/2.8 (bone) cells that were stably transfected with a 24-hydyroxylase (24Ohase) gene promoter upstream of a luciferase reporter gene (Arbour et al., 1998). Cells were given a range of doses. Sixteen hours after dosing the cells were harvested and luciferase activities were measured using a luminometer. (RLU=relative luciferase units)
# [2] = tested on: Male, weanling Sprague-Dawley rats; assay: Bone calcium mobilization (serum calcium); format: in vivo, rat; settings: four consecutive ip doses, FIG. 2
# Description: Male, weanling Sprague-Dawley rats were placed on Diet 11 (Suda et al., Purified Rodent Diet-Diet 11, containing 0.47% and 0.3% phosphorus and fat soluble vitamins A, D, E and K are provided ad libitum)(0.47% Ca) diet+AEK for one week followed by Diet 11 (0.02% Ca)+AEK for 3 weeks. The rats were then switched to a diet containing 0.47% Ca for one week followed by two weeks on a diet containing 0.02% Ca. Dose administration began during the last week on 0.02% calcium diet. Four consecutive ip doses were given approximately 24 hours apart. Twenty-four hours after the last dose, blood was collected from the severed neck and the concentration of serum calcium determined as a measure of bone calcium mobilization. The first 10 cm of the intestine was also collected for intestinal calcium transport analysis using the everted gut sac method. The everted gut sac assay was carried out as previously described by Martin and Deluca, Am. J. Physiol. 216, 1351 (1969); (DeLuca et al., U.S. Pat. No. 4,188,345), which are incorporated by reference as if fully set forth herein. […]
# Twenty-four hours after the final dose, approximately 1 ml of blood is collected from the tail artery of each experimental animal. […] The level of calcium is determined by diluting the serum into 0.1% lanthum chloride and measuring the absorbance on an atomic absorption spectrophotometer (Perkin Elmer Model 3110, Shelton, Conn.).
# [3] = tested on: Male, weanling Sprague-Dawley rats; assay: Intestinal calcium transport (everted gut sac method); format: in vivo, rat; settings: four consecutive ip doses, FIG. 3
# Description: Male, weanling Sprague-Dawley rats were placed on Diet 11 (Suda et al., Purified Rodent Diet-Diet 11, containing 0.47% and 0.3% phosphorus and fat soluble vitamins A, D, E and K are provided ad libitum)(0.47% Ca) diet+AEK for one week followed by Diet 11 (0.02% Ca)+AEK for 3 weeks. The rats were then switched to a diet containing 0.47% Ca for one week followed by two weeks on a diet containing 0.02% Ca. Dose administration began during the last week on 0.02% calcium diet. Four consecutive ip doses were given approximately 24 hours apart. Twenty-four hours after the last dose, blood was collected from the severed neck and the concentration of serum calcium determined as a measure of bone calcium mobilization. The first 10 cm of the intestine was also collected for intestinal calcium transport analysis using the everted gut sac method. The everted gut sac assay was carried out as previously described by Martin and Deluca, Am. J. Physiol. 216, 1351 (1969); (DeLuca et al., U.S. Pat. No. 4,188,345), which are incorporated by reference as if fully set forth herein.
# The negative control material is prepared by volumetrically measuring ethanol (<5%) and propylene glycol, mixing, and then placing in storage at 2 to 8° C.
# The solution is mixed and then stored at 2 to 8° C. […]
# [4] = molecular target: T1, full-length recombinant rat vitamin D receptor (Rattus norvegicus, UniProt P13053); assay: Vitamin D receptor binding (competition with [3H]-1,25-(OH)2-D3)
# T1 construct: Full-length recombinant rat receptor was expressed in E. coli BL21 (DE3) Codon Plus RIL cells; histidine tag (C); made in house; host or cells: E. coli BL21 (DE3) Codon Plus RIL
# T1 sequence (P13053 1-423): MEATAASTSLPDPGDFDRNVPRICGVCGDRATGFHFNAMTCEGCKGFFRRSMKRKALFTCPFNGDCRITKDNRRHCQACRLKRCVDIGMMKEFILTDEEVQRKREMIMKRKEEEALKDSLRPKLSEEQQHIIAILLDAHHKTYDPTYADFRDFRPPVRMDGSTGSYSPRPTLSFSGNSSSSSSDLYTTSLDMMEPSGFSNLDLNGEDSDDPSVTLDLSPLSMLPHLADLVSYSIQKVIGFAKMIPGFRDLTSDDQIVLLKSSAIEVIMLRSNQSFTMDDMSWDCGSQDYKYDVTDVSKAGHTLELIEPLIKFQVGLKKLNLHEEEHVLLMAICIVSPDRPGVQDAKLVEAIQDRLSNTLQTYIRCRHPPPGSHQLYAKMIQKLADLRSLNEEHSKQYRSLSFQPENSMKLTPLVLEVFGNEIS
# Procedure: Full-length recombinant rat receptor was expressed in E. coli BL21 (DE3) Codon Plus RIL cells and purified to homogeneity using two different column chromatography systems. The first system was a nickel affinity resin that utilizes the C-terminal histidine tag on this protein. The protein that was eluted from this resin was further purified using ion exchange chromatography (S-Sepharose Fast Flow). Aliquots of the purified protein were quick frozen in liquid nitrogen and stored at −80° C. until use. For use in binding assays, the protein was diluted in TEDK50 (50 mM Tris, 1.5 mM EDTA, pH7.4, 5 mM DTT, 150 mM KCl) with 0.1% Chaps detergent. The receptor protein and ligand concentration was optimized such that no more than 20% of the added radiolabeled ligand was bound to the receptor.
# Radiolabeled ligand (^3H-1,25(OH)2D3, ˜159 Ci/mmole) was added in ethanol at a final concentration of 1 nM.
# Radiolabeled and unlabeled ligands were added to 100 mcl of the diluted protein at a final ethanol concentration of <10%, mixed and incubated overnight on ice to reach binding equilibrium. The following day, 100 mcl of hydroxylapatite slurry (50%) was added to each tube and mixed at 10-minute intervals for 30 minutes. […] Total binding was determined from the tubes containing only radiolabeled ligand.
# [5] = tested on: HL-60 cells; assay: HL-60 differentiation (nitro blue tetrazolium reduction); format: cell-based, human; settings: FIG. 4
# Procedure: The study drugs were dissolved in ethanol and the concentrations determined using UV spectrophotometry. Serial dilutions were prepared so that a range of drug concentrations could be tested without changing the final concentration of ethanol (<0.2%) present in the cell cultures.
# Human promyelocytic leukemia (HL60) cells were grown in RPMI-1640 medium containing 10% fetal bovine serum. The cells were incubated at 37° C. in the presence of 5% CO2.
# HL60 cells were plated at 1.2×10^5 cells/ml. Eighteen hours after plating, cells in duplicate were treated with drug. Four days later, the cells were harvested and a nitro blue tetrazolium reduction assay was performed (Collins et al., 1979; J. Exp. Med. 149:969-974). The percentage of differentiated cells was determined by counting a total of 200 cells and recording the number that contained intracellular black-blue formazan deposits. Verification of differentiation to monocytic cells was determined by measuring phagocytic activity (data not shown).
structure (smiles),measurement,setting,value
"C=C1[C@H](O)CC(=C/C=C2\CCC[C@]3(C)[C@@H](CCCCC(C)C)CC[C@@H]23)C[C@H]1O [SY-44, 2-methylene-1α-hydroxy-19,21-dinorvitamin D3]","stimulating transcription of a reporter gene, times less active than 1α,25-dihydroxyvitamin D3","[1]; stably transfected reporter, FIG. 5",10 times
same,stimulation of transcription of reporter gene (in words),[1]; summary statement,capability to stimulate transcription of reporter gene
same,"bone calcium mobilization activity compared with 1α,25-dihydroxyvitamin D3",[2],less bone calcium mobilization activity; also recorded: low ability to mobilize calcium from bone
same,"intestinal calcium transport activity compared with 1α,25-dihydroxyvitamin D3",[3],higher intestinal calcium transport activity; also recorded: high intestinal calcium transport activity
same,"binding to the recombinant vitamin D receptor, times less active when compared to 1α,25-dihydroxyvitamin D3","[4]; competition with [3H]-1,25-(OH)2-D3, relative to 1α,25-dihydroxyvitamin D3, FIG. 1",10 times
same,binding to vitamin D receptors (in words),[4]; summary statement,high binding to vitamin D receptors
same,"activity in inducing differentiation of HL-60 cells compared with 1α,25-dihydroxyvitamin D3",[5],slightly less active; also recorded: capability to induce differentiation of HL-60 cells
